According to patent US10233182B2, “Substituted spirocyclic inhibitors of autotaxin” (X-Rx, Inc., priority 2014, dated 2019):
Where a name gives a salt, the structure may show the parent alone.

target: Autotaxin (Homo sapiens (Human), UniProt Q13822); test: Autotaxin LPC Cascade Assay; assay type: biochemical; settings: Autotaxin 5 nM, LPC 100 μM, choline oxidase/HRP/Ampliflu Red fluorescence read-out, 2% DMSO, RT; read-out: IC50 ATX Activity
In short: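 Choline liberated from LPC by autotaxin during 1 h, after a 10-min RT compound preincubation, was converted through choline oxidase/HRP to a fluorescent Ampliflu Red product.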

Compound | IC50
CC(C)[C@@H](NC(=O)c1cc(C(F)(F)F)ccc1F)C(=O)N1CCC2(CC1)C(=O)N(C)C(=O)N2C [Example 122, (R)—N-(1-(1,3-Dimethyl-2,4-dioxo-1,3,8-triazaspiro[4.5]decan-8-yl)-3-methyl-1-oxobutan-2-yl)-2-fluoro-5-(trifluoromethyl)benzamide] | ≥ 1 µM
CC(C)[C@@H](NC(=O)c1cc(C(F)(F)F)ccc1F)C(=O)N1CCC2(CC1)C(=O)N(CCN(C)C)CN2c1ccc(C(=O)O)cc1 [Example 238, (R)-4-(3-(2-(Dimethylamino)ethyl)-8-(2-(2-fluoro-5-(trifluoromethyl)benzamido)-3-methylbutanoyl)-4-oxo-1,3,8-triazaspiro[4.5]decan-1-yl)benzoic Acid trifluoroacetic Acid Salt] | < 0.5 µM
COc1ccc(CN2C(=O)N(C)C(=O)C23CCN(C(=O)[C@H](NC(=O)c2cc(C(F)(F)F)ccc2F)C(C)C)CC3)cc1 [Example 91, (R)-2-Fluoro-N-(1-(1-(4-methoxybenzyl)-3-methyl-2,4-dioxo-1,3,8-triazaspiro[4.5]decan-8-yl)-3-methyl-1-oxobutan-2-yl)-5-(trifluoromethyl)benzamide] | < 0.5 µM
CCc1cccc(C(=O)N[C@@H](C(=O)N2CCC3(CC2)C(=O)N(C)CN3c2ccccc2)C(C)C)c1 [Example 138, (R)-3-Ethyl-N-(3-methyl-1-(3-methyl-4-oxo-1-phenyl-1,3,8-triazaspiro[4.5]decan-8-yl)-1-oxobutan-2-yl)benzamide] | < 0.5 µM
COC(=O)Nc1ccc(N2CN(C)C(=O)C23CCN(C(=O)[C@H](NC(=O)c2cc(C(F)(F)F)ccc2F)C(C)C)CC3)cc1 [Example 175, (R)-Methyl-4-(8-(2-(2-fluoro-5-(trifluoromethyl)benzamido)-3-methylbutanoyl)-3-methyl-4-oxo-1,3,8-triazaspiro[4.5]decan-1-yl)phenylcarbamate] | < 0.5 µM
Cc1nc2cc(CN3C(=O)N(C)C(=O)C34CCN(C(=O)[C@H](NC(=O)c3cc(C(F)(F)F)ccc3F)C(C)C)CC4)ccc2o1 [Example 116, (R)-2-Fluoro-N-(3-methyl-1-(3-methyl-1-((2-methylbenzo[d]oxazol-5-yl)methyl)-2,4-dioxo-1,3,8-triazaspiro[4.5]decan-8-yl)-1-oxobutan-2-yl)-5-(trifluoromethyl)benzamide] | < 0.5 µM
CC(C)[C@@H](NC(=O)C12CC3CC(CC(C3)C1)C2)C(=O)N1CCC2(CC1)C(=O)N(C)CN2c1ccc(C(=O)O)cc1 [Example 164, (R)-4-(8-(2-(1-Admantanecarboxamido)-3-methylbutanoyl)-3-methyl-4-oxo-1,3,8-triazaspiro[4.5]decan-1-yl)benzoic Acid] | ≥ 1 µM
COc1ccc(N2C(=O)N(C)C(=O)C23CCN(C(=O)[C@H](NC(=O)c2cc(C(F)(F)F)ccc2F)C(C)C)CC3)cn1 [Example 25, (R)-2-Fluoro-N-(1-(1-(6-methoxypyridin-3-yl)-3-methyl-2,4-dioxo-1,3,8-triazaspiro[4.5]decan-8-yl)-3-methyl-1-oxobutan-2-yl)-5-(trifluoromethyl)benzamide] | < 0.5 µM
Cc1ccc(N2C(=O)N(C)C(=O)C23CCN(C(=O)[C@H](NC(=O)c2cc(C(F)(F)F)ccc2F)C(C)C)CC3)cc1 [Example 184, (R)-2-Fluoro-N-(3-methyl-1-(3-methyl-2,4-dioxo-1-p-tolyl-1,3,8-triazaspiro[4.5]decan-8-yl)-1-oxobutan-2-yl)-5-(trifluoromethyl)benzamide] | < 0.5 µM
Cc1nc2ccc(N3C(=O)N(C)C(=O)C34CCN(C(=O)[C@H](NC(=O)c3cc(C(F)(F)F)ccc3F)C(C)C)CC4)cc2[nH]1 [Example 19, (R)-2-Fluoro-N-(3-methyl-1-(3-methyl-1-(2-methyl-1H-benzo[d]imidazol-6-yl)-2,4-dioxo-1,3,8-triazaspiro[4.5]decan-8-yl)-1-oxobutan-2-yl)-5-(trifluoromethyl)benzamide trifluoroacetic Acid Salt] | ≥ 1 µM
CC(C)[C@@H](NC(=O)c1cc(C(F)(F)F)ccc1F)C(=O)N1CCC2(CC1)C(=O)N(C)C(=O)N2c1ccc(C#N)cc1 [Example 7, (R)—N-(1-(1-(4-Cyanophenyl)-3-methyl-2,4-dioxo-1,3,8-triazaspiro[4.5]decan-8-yl)-3-methyl-1-oxobutan-2-yl)-2-fluoro-5-(trifluoromethyl)benzamide] | < 0.5 µM
Cc1ccc(C(F)(F)F)cc1C(=O)N[C@@H](C(=O)N1CCC2(CC1)C(=O)N(C)C(=O)N2c1ccc2[nH]ncc2c1)C(C)C [Example 61, (R)—N-(1-(1-(1H-Indazol-5-yl)-3-methyl-2,4-dioxo-1,3,8-triazaspiro[4.5]decan-8-yl)-3-methyl-1-oxobutan-2-yl)-2-methyl-5-(trifluoromethyl)benzamide] | ≥ 1 µM
CC(C)CCN1C(=O)N(C)C(=O)C12CCN(C(=O)[C@H](NC(=O)c1cc(C(F)(F)F)ccc1F)C(C)C)CC2 [Example 124, (R)-2-Fluoro-N-(1-(1-isopentyl-3-methyl-2,4-dioxo-1,3,8-triazaspiro[4.5]decan-8-yl)-3-methyl-1-oxobutan-2-yl)-5-(trifluoromethyl)benzamide] | < 0.5 µM
CC(C)[C@@H](NC(=O)c1cccnc1)C(=O)N1CCC2(CC1)C(=O)N(C)C(=O)N2c1ccc2[nH]ncc2c1 [Example 229, (R)—N-(1-(1-(1H-Indazol-5-yl)-3-methyl-2,4-dioxo-1,3,8-triazaspiro[4.5]decan-8-yl)-3-methyl-1-oxobutan-2-yl)nicotinamide] | ≥ 1 µM
COC1CC(CN2C(=O)N(C)C(=O)C23CCN(C(=O)[C@H](NC(=O)c2cc(C(F)(F)F)ccc2F)C(C)C)CC3)C1 (stereo partly drawn) [Example 219, (R)-2-Fluoro-N-(1-(1-((3-methoxycyclobutyl)methyl)-3-methyl-2,4-dioxo-1,3,8-triazaspiro[4.5]decan-8-yl)-3-methyl-1-oxobutan-2-yl)-5-(trifluoromethyl)benzamide] | ≥ 1 µM
Cc1csc(CN2C(=O)N(C)C(=O)C23CCN(C(=O)[C@H](NC(=O)c2cc(C(F)(F)F)ccc2F)C(C)C)CC3)n1 [Example 117, (R)-2-Fluoro-N-(3-methyl-1-(3-methyl-1-((4-methylthiazol-2-yl)methyl)-2,4-dioxo-1,3,8-triazaspiro[4.5]decan-8-yl)-1-oxobutan-2-yl)-5-(trifluoromethyl)benzamide] | ≥ 1 µM
COc1ccc(N2CN(C)C(=O)C23CCN(C(=O)[C@H](NC(=O)c2cccc(C)c2)C(C)C)CC3)cc1 [Example 197, (R)—N-(1-(1-(4-Methoxyphenyl)-3-methyl-4-oxo-1,3,8-triazaspiro[4.5]decan-8-yl)-3-methyl-1-oxobutan-2-yl)-3-methylbenzamide] | < 0.5 µM
CC[C@@H](C)[C@@H](NC(=O)c1cccc(C)c1F)C(=O)N1CCC2(CC1)C(=O)N(C)C(=O)N2c1ccccc1 [Example 4, 2-Fluoro-3-methyl-N-((2R,3R)-3-methyl-1-(3-methyl-2,4-dioxo-1-phenyl-1,3,8-triazaspiro[4.5]decan-8-yl)-1-oxopentan-2-yl)benzamide] | < 0.5 µM
CC(C)[C@@H](NC(=O)c1cc(C(F)(F)F)ccc1F)C(=O)N1CCC2(CC1)C(=O)N(C)C(=O)N2c1ccc(Cl)c(Cl)c1 [Example 183, (R)—N-(1-(1-(3,4-Dichlorophenyl)-3-methyl-2,4-dioxo-1,3,8-triazaspiro[4.5]decan-8-yl)-3-methyl-1-oxobutan-2-yl)-2-fluoro-5-(trifluoromethyl)benzamide] | < 0.5 µM
CCc1cc(F)cc(C(=O)N[C@@H](C(=O)N2CCC3(CC2)C(=O)N(C)CN3c2ccccc2)[C@H](C)OC)c1 [Example 136, 3-Ethyl-5-fluoro-N-((2R,3S)-3-methoxy-1-(3-methyl-4-oxo-1-phenyl-1,3,8-triazaspiro[4.5]decan-8-yl)-1-oxobutan-2-yl)benzamide] | < 0.5 µM
CC(C)[C@@H](NC(=O)c1cc(C(F)(F)F)ccc1F)C(=O)N1CCC2(CC1)C(=O)N(C)CN2c1ccc(-c2nn[nH]n2)cc1 [Example 227, (R)—N-(1-(1-(4-(2H-Tetrazol-5-yl)phenyl)-3-methyl-4-oxo-1,3,8-triazaspiro[4.5]decan-8-yl)-3-methyl-1-oxobutan-2-yl)-2-fluoro-5-(trifluoromethyl)benzamide] | < 0.5 µM
CC(C)[C@@H](NC(=O)c1cc(C(F)(F)F)ccc1F)C(=O)N1CCC2(CC1)C(=O)N(C)C(=O)N2Cc1ccccc1 [Example 89, (R)—N-(1-(1-Benzyl-3-methyl-2,4-dioxo-1,3,8-triazaspiro[4.5]decan-8-yl)-3-methyl-1-oxobutan-2-yl)-2-fluoro-5-(trifluoromethyl)benzamide] | < 0.5 µM
CC(C)[C@@H](NC(=O)c1cc(C(F)(F)F)ccc1F)C(=O)N1CCC2(CC1)C(=O)N(C)C(=O)N2Cc1ccc(F)cc1 [Example 90, (R)-2-Fluoro-N-(1-(1-(4-fluorobenzyl)-3-methyl-2,4-dioxo-1,3,8-triazaspiro[4.5]decan-8-yl)-3-methyl-1-oxobutan-2-yl)-5-(trifluoromethyl)benzamide] | < 0.5 µM
COc1ccc(CN2C(=O)N(C)C(=O)C23CCN(C(=O)[C@H](NC(=O)c2cc(C(F)(F)F)ccc2F)C(C)C)CC3)c(F)c1 [Example 108, (R)-2-Fluoro-N-(1-(1-(2-fluoro-4-methoxybenzyl)-3-methyl-2,4-dioxo-1,3,8-triazaspiro[4.5]decan-8-yl)-3-methyl-1-oxobutan-2-yl)-5-(trifluoromethyl)benzamide] | < 0.5 µM
COc1cc(CN2C(=O)N(C)C(=O)C23CCN(C(=O)[C@H](NC(=O)c2cc(C(F)(F)F)ccc2F)C(C)C)CC3)ccn1 [Example 94, (R)-2-Fluoro-N-(1-(1-((2-methoxypyridin-4-yl)methyl)-3-methyl-2,4-dioxo-1,3,8-triazaspiro[4.5]decan-8-yl)-3-methyl-1-oxobutan-2-yl)-5-(trifluoromethyl)benzamide] | < 0.5 µM
CC(C)[C@@H](NC(=O)c1cc(C(F)(F)F)ccc1F)C(=O)N1CCC2(CC1)C(=O)N(C)C(=O)N2c1ccccc1 [Example 44, (R)-2-Fluoro-N-(3-methyl-1-(3-methyl-2,4-dioxo-1-phenyl-1,3,8-triazaspiro[4.5]decan-8-yl)-1-oxobutan-2-yl)-5-(trifluoromethyl)benzamide] | < 0.5 µM
